Test results taken from paper PMC4229098, “Alzheimer's Therapeutics Targeting Amyloid Beta 1–42 Oligomers I: Abeta 42 Oligomer Binding to Specific Neuronal Receptors Is Displaced by Drug Candidates That Improve Cognitive Deficits” (PLoS ONE, 2014).
pEC50, pKi: −log10 of the molar value. Entries after “also recorded” stand apart in the source; their conditions may differ. Like-named read-outs stand apart in the source and are kept apart here.

Assays:
[1] = test system: synaptophysin-immunopositive puncta along MAP2-labeled neurites; assay: Synapse counting assay; type: cell-based, rat; details: Table S1
Description: Sprague-Dawley rats, 18 days pregnant, were euthanized by CO2 asphyxiation followed by cervical dislocation, and embryos were removed. Hippocampus and cortical tissue from the embryo brains were digested in 2.5% Trypsin (Life Technologies) to dissociate cells. Isolated cells were plated at a density of 4.6×10^4 cells per cm^2 in 384-well poly-D Lysine coated plates (Greiner) in Neurobasal Media (Life Technologies) supplemented with B27 (Life Technologies), Glutamax (Life Technologies) and antibiotics (penicillin, 50 units/ml and streptomycin 50 µg/ml, Life Technologies). Cultures were maintained at 37°C in 5% CO2 with weekly media change for 3 weeks prior to experimentation. These mixed cultures of hippocampal plus cortical neurons and glia were used for all of the in vitro experiments described.
Cultures were treated with compounds for 60 minutes prior to addition of 6 µM (maximum from trafficking dose-response curve) of synthetic Abeta 1–42 oligomers and incubated for 24 hrs. Cultures were fixed and immunofluorescently labeled and imaged as for the Abeta binding assay. The ThermoFisher/Cellomics Neuronal Profiling bioapplication was used to count synaptophysin-immunopositive puncta along MAP2-labeled neurites. The number of puncta per unit length of neurites was used to determine effects of treatments. To attain statistical power of 80% and a p value of less than 0.05 (determined using G*Power software), twenty replicate wells were treated per experiment plate and compared to control wells on the same plate and experiments were repeated four times.

[2] = test system: mouse models of Alzheimer's disease; assay: Behavioral tests (behavioral efficacy summary); type: in vivo, mice; design: key to Measured efficacy: statistically significant improvement (+); no significant improvement (-); details: for Behavioral efficacy: Table S1
Description: (§1) All procedures were approved by the Institutional Animal Care and Use and Committee at Columbia University and Stanford University and were in compliance with the Office of Laboratory Animal Welfare and the Guide for the Care and Use of Laboratory Animals, Eighth Edition. Behavioral testing of wild-type, 3–4 month old, male, C57/BL6 mice, injected bilaterally into their hippocampus with Abeta oligomers and testing in the fear conditioning task was done according to published methods. Animals were anesthetized with […] Avertin prior to implantation of cannulas into the hippocampus. Testing of transgenic hAPP Swedish/London mice in the Morris water maze or fear conditioning tasks was done according to published methods, [38]. To measure brain concentration of drugs, brains were homogenized in 1 ml PBS per gram of brain tissue using a handheld homogenizer. Brain homogenate was then extracted with three volumes of ice cold methanol on ice for 15 minutes and centrifuged for 15 min. The supernates were analyzed by LC/MS/MS. Samples were compared to a calibration curve prepared in a similar manner by spiking blank control homogenate with standards prepared in DMSO and then extracted as above. At the end of all behavioral testing, animals were euthanized with CO2 followed by cervical dislocation.

[3] = test system: mature primary hippocampal and cortical cultures; assay: Membrane trafficking assay (MTT formazan exocytosis); type: cell-based, rat; details: for EC50: log value; for Schild slope: against synthetic oligomers;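 as to all read-outs here: mixed neuron and glia cultures from E18 Sprague-Dawley rat embryos, grown 3 weeks in 384-well plates, labeled vesicles quantified by imaging or spectrophotometry as percent of vehicle-treated wells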
[4] = test system: C57/BL6 mice injected with Abeta oligomers; assay: Contextual fear conditioning after intrahippocampal Abeta oligomer injection; type: in vivo; details: 2 µM intrahippocampal; for prevention of Abeta oligomer-induced fear memory deficits: one hour prior to oligomer injection; for effect on fear memory when administered alone: without Abeta
Description: as §1

[5] = test system: neuronal synaptic puncta in hippocampal/cortical cultures; assay: Abeta binding assay, neurons (immunofluorescence of neurite puncta); design: species or system rat; details: for displacement of Abeta oligomers: 15 µM compound added 1 hour after oligomers 0.5 µM, within 1 hour; for prevention of binding of Abeta oligomers to neuronal cultures: 15 µM compound one hour prior to synthetic Abeta oligomers 0.5 µM
[6] = biological target: T1, sigma-2/PGRMC1 receptor (Homo sapiens, UniProt Q5BJF2); assay: Sigma-2 radioligand binding; details: radioligand competition binding; read-out: Ki, binding affinity at the sigma-2/PGRMC1 receptor
T1 construct: endogenous in cells; host or cells: human Jurkat cells (membranes)
Description: Radioligand competition assays were performed in membranes from human Jurkat cells using 5 nM [^3H]1,3-di(2-tolyl) guanidine in the presence of 1 µM (+)-pentazocine with 10 µM haloperidol to define non-specific binding.

[7] = biological target: T2, Abeta 1–42 oligomers (Homo sapiens, UniProt P05067); assay: Oligomer-specific Abeta ELISA (direct action on oligomers); type: biochemical
T2 construct: purchased California Peptide Inc; American Peptide Company; or University of Pittsburgh Peptide Core facility 641-15; 62-0-80; host or cells: chemical synthesis
Description: Determination of oligomeric and monomeric concentrations of Abeta contained in a given Abeta preparation was done according to the method of LeVine. Briefly, total Abeta concentration is measured by two-site ELISA using different capture (6E10 monoclonal antibody, Covance SIG-39320) and detection (4G8- conjugated to biotin, Covance, SIG39240) antibodies and quantifyied with streptavidin-horseradish peroxidase (Millipore catalog number AP308P). Oligomerized Abeta is measured in the same samples by a single-site ELISA in which monoclonal antibodies to the same epitope are used for capture (4G8, Covance SIG-39330) and detection (4G8-biotin). The 4G8-biotin cannot bind to captured monomer because the epitope is blocked by the capture antibody, so only oligomers are detected with this configuration. The streptavidin-horseradish peroxidase therefore reports only oligomeric Abeta which has additional exposed 4G8 epitopes. Monomer concentration is calculated as the difference between total Abeta concentration and oligomer concentration.

[8] = Brain concentration of compounds (LC/MS/MS); type: in vivo, mice; details: mouse, 24 h after last dose, read-out: Compound Concentration in brain
Description: as §1

[9] = test system: hAPP Swe/Ldn transgenic mice; assay: Contextual fear conditioning in transgenic mice; type: in vivo; details: 30 mg/kg/day p.o., 5.5 months, 9 month old males
Description: as §1

[10] = test system: hAPP Swe/Ldn transgenic mice; assay: Morris water maze probe trial; type: in vivo; details: 42 days
Description: as §1

[11] = Rattus norvegicus, compound added 1 hr prior to Abeta oligomers, read-out: Prevention Log EC50 ± SE (converted)
[12] = Rattus norvegicus, compound added 1 hr prior to synthetic Abeta oligomers, read-out: Prevention EC50
[13] = Rattus norvegicus, 1 h, compound added 1 hr after Abeta oligomers, read-out: Treatment Log EC50 ± SE (converted)
[14] = Rattus norvegicus, 1 h, compound added 1 hr after synthetic Abeta oligomers, read-out: Treatment EC50

T1 sequence (Q5BJF2 whole entry): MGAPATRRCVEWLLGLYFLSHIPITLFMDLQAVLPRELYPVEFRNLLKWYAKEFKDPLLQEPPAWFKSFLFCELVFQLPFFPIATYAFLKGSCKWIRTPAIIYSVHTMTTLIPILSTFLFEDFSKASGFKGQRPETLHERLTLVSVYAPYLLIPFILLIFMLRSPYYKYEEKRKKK
T2 sequence (P05067 672-713): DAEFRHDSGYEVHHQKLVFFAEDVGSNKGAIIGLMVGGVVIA

Compound	Affects Synapse density in the absence of Aβ [1]	Behavioral efficacy [2]	EC50 [3, 11] [µM]	pEC50 [3, 12]	prevention of Abeta oligomer-induced fear memory deficits [4]	effect on fear memory when administered alone [4]	displacement of Abeta oligomers [5]	prevention of binding of Abeta oligomers to neuronal cultures [5]	EC50 [3, 13] [µM]	pEC50 [3, 14]	Schild slope [3]	pKi [6]	dissociation of preformed oligomers [7]	further results
COc1ccc(CCC(C)NC2CCCc3ccccc32)cc1 (stereo not drawn) [CT01206]	Yes	No	4.37	5.37	not effective	caused fear memory deficits in the absence of Abeta								
COc1cc(CCC(C)NCc2ccc(C(F)(F)F)cc2)ccc1O (stereo not drawn) [CT0109]	No	Yes	3.24	5.49	completely prevented fear memory deficits	no effect on memory	44%±3%	99%±7%	4.07	5.39	1	8.05	not by CT0109 or CT0093	Measured efficacy ([2]; 1 mg/kg/day s.c. osmotic minipump): +; Measured efficacy ([2]; 10 mg/kg/day s.c. osmotic minipump): +; restoration of trafficking ([3]; 15 µM added 1 hr prior to synthetic Abeta oligomers 3 µM): restores trafficking to vehicle-treated levels; pEC50 ([3]; Rattus norvegicus, Table S1, read-out: Block Aβ-induced membrane trafficking deficits EC50): 5.66; reversal of trafficking deficit caused by human patient derived Abeta ([3]; compound 0.2 µM, Abeta 1.5 pM): reverse the trafficking deficit; effect on trafficking of compound alone ([3]; no Abeta): without affecting trafficking on their own; also recorded: without affecting vesicles on its own; concentration at 24 h ([8]; hAPP Swedish/London transgenic, subcutaneous, 1 mg/kg/day s.c. osmotic minipump): 41 nM; concentration at 24 h ([8]; hAPP Swedish/London transgenic, subcutaneous, 10 mg/kg/day s.c. osmotic minipump): 266 nM
Oc1cccc2cccnc12 [8-OH quinoline, reference compound]													dissociated	
Synthetic oligomers (low concentration): Abeta 1–42 oligomers formed at 500 nM, high molecular weight fraction from Sephadex G-75 [reference compound]														Treatment duration for maximum response ([3]; Abeta preparation dosed alone): 1 h; pEC50 ([3]; preparation dosed alone, read-out: EC50 of Abeta preparation): 8.57
C[C@H](CCc1ccc(Cl)cc1)NCc1ccc(C(F)(F)F)cc1 [CT01346]	No	Yes	9.33	5.03			93±13%	93%±4%	8.71	5.06	1	7.30		contextual fear memory performance [9]: significantly improved fear memory performance; Measured efficacy ([2]; 10 mg/kg/day oral gavage): -; Measured efficacy ([2]; 30 mg/kg/day oral gavage): +; spatial memory retrieval performance, transgenic animals ([10]; 30 mg/kg/day oral, eleven month-old females): significantly improves spatial memory retrieval performance; behavior of treated nontransgenic animals ([10]; 30 mg/kg/day p.o.): behaved similarly to vehicle-treated wild-type animals; concentration at 24 h ([8]; hAPP Swe/Ldn transgenic, 10 mg/kg/day once daily oral gavage): 54 nM; concentration at 24 h ([8]; hAPP Swe/Ldn transgenic, 30 mg/kg/day once daily oral gavage): 330 nM
C[C@]12N[C@H](Cc3ccccc31)c1ccccc12 [MK-801, reference compound]														activity in blocking effects of Abeta oligomers ([3]; control compounds): only memantine was active
